Test results taken from PubChem BioAssay (NCI).
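Step 1: Grow cells in 96-well plates. Step 2: Expose to compound for 48 hours at 5 concentrations. Step 3: Interpolate endpoints linearly; if unreached, use highest concentration. The concentration for 50% growth inhibition is given as GI50. Definition used: TGI = concentration required for complete inhibition of growth.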

How the values were obtained:
Assay in all cases: NCI anticancer screen, dose series, 48 h
[1] = test system: ACHN renal
[2] = test system: HCT-116 colon
[3] = test system: HL-60(TB) leukemia
[4] = test system: K-562 leukemia
[5] = test system: KM12 colon
[6] = test system: NCI-H23 lung
[7] = test system: SF-268 CNS
[8] = test system: SF-539 CNS
[9] = test system: SNB-19 CNS
[10] = test system: U251 CNS

Structure (SMILES)	GI50 [1] [µM]	TGI [1] [µM]	GI50 [2] [µM]	TGI [2] [µM]	GI50 [3] [µM]	TGI [3] [µM]	GI50 [4] [µM]	TGI [4] [µM]	GI50 [5] [µM]	TGI [5] [µM]	GI50 [6] [µM]	TGI [6] [µM]	GI50 [7] [µM]	TGI [7] [µM]	GI50 [8] [µM]	TGI [8] [µM]	GI50 [9] [µM]	TGI [9] [µM]	GI50 [10] [µM]	TGI [10] [µM]
COc1cccc2nc(Nc3cccc(NC(=O)c4ccc(N5CCN(C)CC5)c(C(F)(F)F)c4)c3)ccc12	1.53	4.57	0.869	1.89	1.07	2.35	1.1	3.68	1.09	2.56	2.93	10.6	1.5	7.3	0.895	1.66	1.11	2.29	0.885	1.68
CC[O-].CC[O-].O=C1C=C([O-])C(=O)c2ccccc21.O=C1C=C([O-])C(=O)c2ccccc21.[Ti+4]	71	> 100	43.2	> 100	7.22	> 100	69.6	> 100	> 90.8	> 100	4.43	> 100	> 100	> 100	100	> 100	> 84.5	> 100	> 100	> 100
C[C@@H](NC1CCCC[C@@H]1O)c1ccccc1 (some centres not stated)		> 100		> 100		> 100		> 100		> 100								> 100		> 100
OC1(C(Sc2ccccc2)Sc2ccccc2)CCCCCC1		64.5		72.3		50.8				> 100		> 100		> 100		64.9		77.4		66.2
Cc1ccc2ncnc(N(C)C3CCCCC3)c2c1	29	> 100	36.7	> 100			13.5	94.4	35.6	> 100	26.5	74.4	23.7	89.8			59.5	> 100	59.7	> 100
COc1ccc2c(c1)OCC1c3cc(OC)c4ccccc4c3OC21 (configuration not stated)	27.4	> 100	6.65	> 100	2.61	9.61	4.62	> 100	4.82	> 100	4.88	43.2	12.1	> 100	21.3	> 100	23.9	> 100	9.95	67
CC(=O)Oc1ccc2c(=O)c(C(C)=O)coc2c1		> 100		> 100		> 100		> 100		> 100		> 100		> 100		> 100		> 100		> 100
O=S(=O)(NCCNc1nccc(-c2c(-c3ccc(F)cc3)nc3sccn23)n1)c1ccc(O)cc1	2.03	45.6	1.43	22.1	4.93	30.5	2.18	> 100	2.05	14.2	4.96	28.1	3.99	56.2	11.3	30.7	12.5	> 100	1.36	23.4
